From patent US20150272939A1, “Identification of Small Molecule Inhibitors of Jumonji AT-Rich Interactive Domain 1A (JARID1A) and 1B (JARID1B) Histone Demethylase” (Yale University, priority 2012, published 2015)
Several values for one entry are separate records, joined by “and”; a condition that tells them apart may be missing. Equal entries are not always repeated. Entries after “also recorded” stand apart in the source; their conditions may differ. Where two headings read alike, the source gives them in different places.

Assays:
[1] = system: SKBR3-S cells (trastuzumab sensitive); assay: WST-1 cell proliferation assay; format: cell-based; conditions: 30 μM
Procedure: (§1) The colorimetric assay (WST-1 reagent) from Roche (11644807001) was performed in 96 well white clear bottom plates (Costar, 3610). 1,000 cells were seeded per well (in quadruplicate) overnight, and PBIT was added to the cells to the indicated concentration for 72 hrs. 0.01% DMSO was included as the control. The WST-1 reagent was added (5 μl per well) for 4 hrs, and OD 440 nm absorbance (which reflects the number of viable cells) was measured with the BioTek Synergy Mx Platereader.

[2] = target: T1, JMJD2E (Homo sapiens, UniProt B2RXH2); conditions: King et al., 2010; cited from earlier work
T1 sequence (B2RXH2 1-337 limits assumed): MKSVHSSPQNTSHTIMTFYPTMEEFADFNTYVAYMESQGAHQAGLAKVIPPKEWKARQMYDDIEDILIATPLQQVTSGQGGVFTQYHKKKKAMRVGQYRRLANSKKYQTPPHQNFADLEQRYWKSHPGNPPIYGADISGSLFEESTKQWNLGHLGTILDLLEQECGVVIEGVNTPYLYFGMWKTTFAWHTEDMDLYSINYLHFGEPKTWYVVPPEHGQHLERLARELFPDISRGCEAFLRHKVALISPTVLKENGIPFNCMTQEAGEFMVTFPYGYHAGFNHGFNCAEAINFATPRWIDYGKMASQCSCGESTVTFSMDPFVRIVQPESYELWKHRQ

[3] = system: 1445 mouse melanoma cells; assay: WST-1 cell proliferation assay; format: cell-based; conditions: 0, 10 and 30 μM
Procedure: as §1
A panel of mouse and human melanoma cells was treated with 0, 10 and 30 μM PBIT and their proliferation rates were assessed using WST-1 assays.

[4] = system: SKBR3-R cells (trastuzumab resistant); assay: WST-1 cell proliferation assay; format: cell-based; conditions: 30 μM
[5] = target: T2, JMJD3 (Homo sapiens, UniProt O15054); assay: FLAG-JMJD3 H3K27me3 demethylase assay with AlphaScreen detection; format: biochemical; conditions: compound 10 μM, 64 nM bio-H3K27me3 peptide
T2 construct: FLAG (N); purchased BPS Bioscience 50115
T2 sequence (O15054 1-1682 isoform O15054-1): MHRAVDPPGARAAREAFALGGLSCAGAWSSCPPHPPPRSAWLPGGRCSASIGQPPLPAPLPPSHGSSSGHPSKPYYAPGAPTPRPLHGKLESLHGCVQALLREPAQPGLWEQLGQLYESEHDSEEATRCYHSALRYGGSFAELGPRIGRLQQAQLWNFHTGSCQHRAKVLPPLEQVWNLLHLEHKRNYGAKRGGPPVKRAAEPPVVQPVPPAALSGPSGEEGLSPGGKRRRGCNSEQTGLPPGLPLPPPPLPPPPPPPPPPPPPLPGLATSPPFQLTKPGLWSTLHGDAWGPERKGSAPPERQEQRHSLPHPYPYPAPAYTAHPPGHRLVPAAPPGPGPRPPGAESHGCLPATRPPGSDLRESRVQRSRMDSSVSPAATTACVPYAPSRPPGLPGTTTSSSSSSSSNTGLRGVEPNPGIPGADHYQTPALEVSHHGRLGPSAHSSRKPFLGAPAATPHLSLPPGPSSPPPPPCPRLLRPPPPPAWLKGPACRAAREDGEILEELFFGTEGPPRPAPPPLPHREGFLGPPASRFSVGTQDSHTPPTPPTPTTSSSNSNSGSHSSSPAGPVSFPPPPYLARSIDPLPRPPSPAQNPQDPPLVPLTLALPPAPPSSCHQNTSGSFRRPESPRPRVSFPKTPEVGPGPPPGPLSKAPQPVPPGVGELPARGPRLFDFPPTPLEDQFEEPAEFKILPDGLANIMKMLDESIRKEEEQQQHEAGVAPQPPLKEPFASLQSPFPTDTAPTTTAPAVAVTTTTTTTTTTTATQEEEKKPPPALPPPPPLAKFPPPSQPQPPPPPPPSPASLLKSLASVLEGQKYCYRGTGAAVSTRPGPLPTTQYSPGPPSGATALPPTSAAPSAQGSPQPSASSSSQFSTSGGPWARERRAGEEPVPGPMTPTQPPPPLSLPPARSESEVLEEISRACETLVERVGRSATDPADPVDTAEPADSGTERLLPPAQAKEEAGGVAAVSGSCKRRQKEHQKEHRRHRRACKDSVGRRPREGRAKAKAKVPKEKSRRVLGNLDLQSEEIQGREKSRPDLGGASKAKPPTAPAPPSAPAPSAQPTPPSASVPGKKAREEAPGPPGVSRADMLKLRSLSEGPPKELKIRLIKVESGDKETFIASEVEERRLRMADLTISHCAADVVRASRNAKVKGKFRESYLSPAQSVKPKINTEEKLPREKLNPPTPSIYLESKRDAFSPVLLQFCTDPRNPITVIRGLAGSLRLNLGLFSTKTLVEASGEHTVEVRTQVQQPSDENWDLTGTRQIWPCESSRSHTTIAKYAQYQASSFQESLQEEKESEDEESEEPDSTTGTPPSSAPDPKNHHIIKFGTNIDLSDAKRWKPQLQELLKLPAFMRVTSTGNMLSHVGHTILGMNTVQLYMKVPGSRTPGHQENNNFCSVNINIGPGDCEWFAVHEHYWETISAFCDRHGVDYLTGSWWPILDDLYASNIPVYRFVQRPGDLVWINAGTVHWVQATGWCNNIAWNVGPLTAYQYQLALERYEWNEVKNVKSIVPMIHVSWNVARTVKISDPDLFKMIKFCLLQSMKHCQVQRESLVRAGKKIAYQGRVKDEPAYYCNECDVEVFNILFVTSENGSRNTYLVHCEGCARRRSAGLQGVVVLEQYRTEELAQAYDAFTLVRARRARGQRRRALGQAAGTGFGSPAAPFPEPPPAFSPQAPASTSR
Procedure: Histone demethylase assays were performed in 384 well white plates (Corning 3574). Demethylase buffer conditions for FLAG-JARID1B were as follows: 10 μM α-KG, 100 μM ascorbate, 50 μM (NH4)2Fe(SO4)2, 50 mM Hepes (pH 7.5), 0.01% (v/v) Tween 20, and 0.1% (w/v) bovine serum albumin. The demethylase reactions included 64 nM bio-H3K4me3 peptide alone or in the presence of 4 nM FLAG-JARID1B enzyme in a 10 μl reaction at 25° C. for 30 minutes. As a positive control, 64 nM bio-H3K4me2 peptide was assayed in the absence of enzyme. Assay conditions for FLAG-JARID1C is the same as for FLAG-JARID1B except that 20 nM enzyme was used. For FLAG-JARID1A, the demethylase buffer was similar to FLAG-JARID1B, except that 125 μM α-KG and 13 nM FLAG-JARID1A enzyme were used. […]
The AlphaScreen General IgG (Protein A) detection kit was obtained from PerkinElmer. Demethylated H3K4 products were detected using AlphaScreen antibody/bead mix containing 7.5 mM ethylenediaminetetraacetic acid (EDTA) and 0.15 μg/ml anti-H3K4me1 antibody in a final volume of 20 μl. […] The luminescence signal was measured using the Envision (PerkinElmer) or Pherastar (BMG Labtech) Platereaders.

[6] = target: T3, JARID1A (Homo sapiens, UniProt P29375); assay: FLAG-JARID1A histone demethylase assay with AlphaScreen detection (HTS and dose response); format: biochemical
T3 construct: the high-throughput screen of the invention utilizes full length JARID1A or JARID1B; FLAG (N); made in house; host or cells: Sf21 insect cells (baculovirus)
T3 sequence (P29375 whole entry): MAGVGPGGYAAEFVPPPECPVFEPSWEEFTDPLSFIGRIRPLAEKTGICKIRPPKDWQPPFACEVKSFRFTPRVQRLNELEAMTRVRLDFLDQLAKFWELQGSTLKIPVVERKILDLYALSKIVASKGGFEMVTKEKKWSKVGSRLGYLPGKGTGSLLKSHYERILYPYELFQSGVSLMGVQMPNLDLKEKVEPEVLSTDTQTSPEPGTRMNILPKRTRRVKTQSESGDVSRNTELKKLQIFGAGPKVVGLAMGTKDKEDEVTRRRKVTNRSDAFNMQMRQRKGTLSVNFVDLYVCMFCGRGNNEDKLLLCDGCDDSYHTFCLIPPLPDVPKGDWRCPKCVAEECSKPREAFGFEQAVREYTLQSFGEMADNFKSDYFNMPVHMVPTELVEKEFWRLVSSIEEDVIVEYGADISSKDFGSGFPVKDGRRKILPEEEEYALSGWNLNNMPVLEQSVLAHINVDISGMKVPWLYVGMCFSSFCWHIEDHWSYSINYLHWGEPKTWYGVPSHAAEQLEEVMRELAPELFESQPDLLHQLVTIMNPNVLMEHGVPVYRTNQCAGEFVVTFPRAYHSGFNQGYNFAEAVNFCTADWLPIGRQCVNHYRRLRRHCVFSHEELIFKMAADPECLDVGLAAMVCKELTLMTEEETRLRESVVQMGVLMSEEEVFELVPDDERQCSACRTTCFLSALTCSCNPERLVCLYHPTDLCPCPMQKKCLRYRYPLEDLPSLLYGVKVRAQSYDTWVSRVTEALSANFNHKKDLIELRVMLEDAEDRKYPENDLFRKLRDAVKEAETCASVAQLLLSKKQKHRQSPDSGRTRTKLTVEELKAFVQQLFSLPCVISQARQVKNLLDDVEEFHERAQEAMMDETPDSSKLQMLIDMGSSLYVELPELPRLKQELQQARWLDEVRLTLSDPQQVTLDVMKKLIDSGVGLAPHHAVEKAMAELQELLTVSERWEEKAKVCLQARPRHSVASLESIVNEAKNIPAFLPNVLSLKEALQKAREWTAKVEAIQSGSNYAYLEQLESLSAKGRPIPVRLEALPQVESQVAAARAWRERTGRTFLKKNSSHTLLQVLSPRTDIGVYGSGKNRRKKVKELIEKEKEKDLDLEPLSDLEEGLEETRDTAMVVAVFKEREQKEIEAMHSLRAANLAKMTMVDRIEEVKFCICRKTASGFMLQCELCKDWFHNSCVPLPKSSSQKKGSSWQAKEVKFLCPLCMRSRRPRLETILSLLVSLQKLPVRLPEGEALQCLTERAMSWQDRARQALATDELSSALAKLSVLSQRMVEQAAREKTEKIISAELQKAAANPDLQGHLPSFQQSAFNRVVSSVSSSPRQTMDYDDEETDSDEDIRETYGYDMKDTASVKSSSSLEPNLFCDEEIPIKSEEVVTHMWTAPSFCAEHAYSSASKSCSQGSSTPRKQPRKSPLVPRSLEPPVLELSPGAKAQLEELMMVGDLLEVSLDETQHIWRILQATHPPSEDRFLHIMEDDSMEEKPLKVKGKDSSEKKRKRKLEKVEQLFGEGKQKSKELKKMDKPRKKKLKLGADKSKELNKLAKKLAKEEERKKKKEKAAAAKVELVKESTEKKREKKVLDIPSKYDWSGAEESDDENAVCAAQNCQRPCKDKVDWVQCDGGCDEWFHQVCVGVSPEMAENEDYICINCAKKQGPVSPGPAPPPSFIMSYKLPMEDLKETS
Procedure: (§2) Histone demethylase assays were performed in 384 well white plates (Corning 3574). Demethylase buffer conditions for FLAG-JARID1B were as follows: 10 μM α-KG, 100 μM ascorbate, 50 μM (NH4)2Fe(SO4)2, 50 mM Hepes (pH 7.5), 0.01% (v/v) Tween 20, and 0.1% (w/v) bovine serum albumin. The demethylase reactions included 64 nM bio-H3K4me3 peptide alone or in the presence of 4 nM FLAG-JARID1B enzyme in a 10 μl reaction at 25° C. for 30 minutes. As a positive control, 64 nM bio-H3K4me2 peptide was assayed in the absence of enzyme. Assay conditions for FLAG-JARID1C is the same as for FLAG-JARID1B except that 20 nM enzyme was used. For FLAG-JARID1A, the demethylase buffer was similar to FLAG-JARID1B, except that 125 μM α-KG and 13 nM FLAG-JARID1A enzyme were used. The His-FLAG-UTX and FLAG-JMJD3 demethylase assays also employed the same buffer conditions as for FLAG-JARID1B, with 64 nM bio-H3K27me3 peptide assayed with or without 25 nM His-FLAG-UTX enzyme or 50 nM FLAG-JMJD3 (BPS Bioscience, 50115), and 64 nM bio-H3K27me2 peptide as a positive control. JARID1A, JARID1C, UTX, and JMJD3 histone demethylase assays proceeded at 37° C. for 1 hour.
(§3) The AlphaScreen General IgG (Protein A) detection kit was obtained from PerkinElmer. Demethylated H3K4 products were detected using AlphaScreen antibody/bead mix containing 7.5 mM ethylenediaminetetraacetic acid (EDTA) and 0.15 μg/ml anti-H3K4me1 antibody in a final volume of 20 μl. For detection of demethylated H3K27 products, the AlphaScreen antibody/bead mix containing 7.5 mM EDTA and 0.15 μg/ml anti-H3K27me2 antibody in a final volume of 20 μl. The luminescence signal was measured using the Envision (PerkinElmer) or Pherastar (BMG Labtech) Platereaders.
FLAG-JARID1A was screened against 9,600 compounds. These compound libraries were from the Yale Center for Molecular Discovery. The libraries screened include the MicroSource Gen-Plus, MicroSource Pure Natural Products, NIH Clinical Collection, Enzo Epigenetics, and ChemBridge MW-Set libraries. Compounds dissolved in dimethyl sulfoxide (DMSO) were pintooled into a 384 well plate containing bio-H3K4me3 peptide in demethylase buffer to a final concentration of 20 μM. The reactions were initiated by the addition of 13 nM FLAG-JARID1A, and detected as described above. To eliminate the false positive hits, a counterscreen was performed against bio-H3K4me2 in the absence of enzyme.

[7] = target: T4, JARID1B (Homo sapiens, UniProt Q9UGL1); assay: FLAG-JARID1B histone demethylase assay with AlphaScreen detection (HTS and dose response); format: biochemical;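 note: FLAG-tagged JARID1B at 4 nM acting on a biotinylated H3K4me3 peptide, demethylation read by AlphaScreen luminescence, with hits checked against bio-H3K4me2 without enzyme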
T4 construct: The FLAG tagged full length JARID1B enzyme was expressed in Sf21 insect cells using FLAG-JARID1B baculoviruses; FLAG (N); made in house; host or cells: Sf21 insect cells (baculovirus)
T4 sequence (Q9UGL1 whole entry): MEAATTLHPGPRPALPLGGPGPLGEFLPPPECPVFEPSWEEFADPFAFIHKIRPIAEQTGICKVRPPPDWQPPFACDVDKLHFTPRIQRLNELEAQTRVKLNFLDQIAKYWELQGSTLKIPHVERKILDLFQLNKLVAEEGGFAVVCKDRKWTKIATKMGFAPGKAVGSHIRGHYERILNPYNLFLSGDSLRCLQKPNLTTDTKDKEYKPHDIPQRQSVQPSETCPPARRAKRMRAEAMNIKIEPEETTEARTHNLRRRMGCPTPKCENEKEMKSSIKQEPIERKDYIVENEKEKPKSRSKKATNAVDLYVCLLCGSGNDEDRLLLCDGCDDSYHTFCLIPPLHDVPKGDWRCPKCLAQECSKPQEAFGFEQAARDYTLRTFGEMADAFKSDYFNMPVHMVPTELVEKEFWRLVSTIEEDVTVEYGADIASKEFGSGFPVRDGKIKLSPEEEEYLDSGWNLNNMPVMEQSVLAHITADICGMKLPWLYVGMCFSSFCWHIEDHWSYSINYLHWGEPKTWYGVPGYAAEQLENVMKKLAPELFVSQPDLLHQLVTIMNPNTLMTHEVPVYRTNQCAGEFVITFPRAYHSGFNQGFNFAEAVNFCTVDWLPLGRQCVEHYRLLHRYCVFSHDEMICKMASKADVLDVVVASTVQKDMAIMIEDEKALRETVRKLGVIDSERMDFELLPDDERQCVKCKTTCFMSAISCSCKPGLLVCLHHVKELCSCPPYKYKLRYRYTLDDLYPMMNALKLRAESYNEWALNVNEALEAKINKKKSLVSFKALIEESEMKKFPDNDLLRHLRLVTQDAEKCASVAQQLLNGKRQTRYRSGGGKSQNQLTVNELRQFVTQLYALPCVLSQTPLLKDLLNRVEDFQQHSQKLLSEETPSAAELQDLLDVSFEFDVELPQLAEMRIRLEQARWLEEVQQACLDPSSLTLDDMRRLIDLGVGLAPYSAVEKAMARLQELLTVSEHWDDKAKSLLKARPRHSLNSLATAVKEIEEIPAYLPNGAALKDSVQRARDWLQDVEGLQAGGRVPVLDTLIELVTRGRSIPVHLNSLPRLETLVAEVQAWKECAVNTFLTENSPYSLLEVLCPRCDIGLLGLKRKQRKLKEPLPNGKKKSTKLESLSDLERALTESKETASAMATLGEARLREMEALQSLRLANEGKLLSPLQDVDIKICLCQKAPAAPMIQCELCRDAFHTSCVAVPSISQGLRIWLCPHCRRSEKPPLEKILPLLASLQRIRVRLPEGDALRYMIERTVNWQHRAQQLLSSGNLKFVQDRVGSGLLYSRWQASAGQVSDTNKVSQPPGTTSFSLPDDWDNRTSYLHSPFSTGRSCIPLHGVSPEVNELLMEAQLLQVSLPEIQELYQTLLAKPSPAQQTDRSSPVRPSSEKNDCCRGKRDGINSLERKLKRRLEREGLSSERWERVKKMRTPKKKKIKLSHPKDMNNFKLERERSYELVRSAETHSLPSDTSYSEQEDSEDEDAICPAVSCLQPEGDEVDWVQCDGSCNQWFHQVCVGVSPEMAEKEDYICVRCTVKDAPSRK

[8] = target: T5, JARID1C (Homo sapiens, UniProt P41229); assay: FLAG-JARID1C histone demethylase assay with AlphaScreen detection; format: biochemical
T5 construct: FLAG (N); made in house; host or cells: Sf21 insect cells (baculovirus)
Procedure: as §2, §3

[9] = system: MCF7 cells; assay: Histone extraction and western blot of H3K4 methylation; format: cell-based, human; conditions: 10 μM, 72 hours, histone extracts
Procedure: MCF7 cells treated with PBIT (10 μM) or DMSO (0.1%) for 72 hours were harvested and lysed with PBS containing 0.5% Triton X-100. Nuclei were spun down by centrifugation at 6,500×g for 10 minutes, and the pellets were re-suspended in 0.2 N HCl. The histones were extracted overnight, and cellular debris was removed by centrifugation. The samples were loaded onto 16% SDS-PAGE gels and probed with antibodies against H3K4me3, H3K4me2, H3K4me1 and H3.
To determine whether PBIT affects H3K4 methylation globally in vivo, H3K4 methylation levels were analyzed in histone extracts prepared from MCF7 cells after exposure to PBIT.

[10] = compound 10 μM, 64 nM bio-H3K4me3 peptide

## Cc1ccc(-n2sc3ccccc3c2=O)cc1 [PBIT, 2-4(4-methylphenyl)-1,2-benzisothiazol-3(2H)-one]
[1]
  cell proliferation (WST-1): small inhibitory effects
[2]
  IC50: 28 µM
[3]
  sensitivity of proliferation to treatment (WST-1): most sensitive
[4]
  cell proliferation (WST-1): killed most
[5]
  JMJD3 demethylase activity: minimal effect; also recorded: did not inhibit
[6]; [10]
  JARID1A demethylase activity: inhibited
[6]; dose response, 50 μM Fe (II), read-out: IC50 against JARID1A
  IC50: 6 µM and ~6 µM
[7]
  inhibition of JARID1B (maximum): up to 95%
[7]; Fe (II) concentration not stated, read-out: IC50 against JARID1B
  IC50: ~3 µM
[7]; [10]
  JARID1B demethylase activity: inhibited
[7]; dose response at 15 μM (low) Fe (II), read-out: IC50 (μM) low Fe (II)
  IC50: 3.17 µM
[7]; dose response at 50 μM (high) Fe (II), read-out: IC50 (μM) high Fe (II)
  IC50: 2.78 µM
[8]; [10]
  JARID1C demethylase activity: inhibited
[8]; dose response, read-out: IC50 against JARID1C
  IC50: 4.9 µM
[9]
  H3K4me1 levels: did not change significantly
  H3K4me2 levels: did not change significantly
  H3K4me3 levels: increased; also recorded: dramatic increase
